34 molecules from PubChem BioAssay AID743475 (The Scripps Research Institute Molecular Screening Center, 2014) can be followed below.

Each structure is given as a SMILES string. Activity calls are given as the source filed them. No rule for the calls is given here.

The test system of this assay is OTUB2. The assay can be described thus: late-stage follow-up, selectivity assay for CCHF vOTU protease inhibitor project, biochemical, fluorescence, assay provider (AID 743475). The note with it: recombinant OTUB2, fluorogenic ubiquitin substrate, hits give high values.

With `O=C1Cc2ccccc2C(=O)N1`, the inhibition (as a rule, the relative decrease from the control value, in per cent) (run 1, at 0.6 µM) was 67.3%.
For `COc1ccccc1NC(=O)COC(=O)c1ccc([N+](=O)[O-])s1`, the inhibition (run 1, at 35.07 µM) was 61.9%.
`Cc1ccc2c(c1C)-c1c(ccc(C)c1C)C(=O)C2=O`: where the note is “run 1, at 18.9 µM”, the inhibition is 60.1%.
For the molecule `COC1=C(N)C(=O)c2nc(C)ccc2C1=O`, the inhibition (run 1, at 4.98 µM) was 67.6%.
As to `NS(=O)(=O)c1ccc(NC(=O)COC(=O)c2ccc([N+](=O)[O-])s2)cc1`, the inhibition (run 1, at 29.01 µM) was 37.5%.
Turning to `CC1COCC(C)N1C1=C(Cl)C(=O)c2ccccc2C1=O` (centres undefined), under “run 1, at 14.67 µM”, the inhibition was 23.6%.
As to `Cc1ccc(N2C(=O)[C@@H]3[C@H](C2=O)C2c4ccccc4C=CN2[C@@H]3C(=O)c2ccco2)cc1` (some centres undefined), the inhibition (run 1, at 5.2 µM) is 55.4%.
As for `CC1CCCC(NC(=O)COC(=O)c2ccc([N+](=O)[O-])s2)C1C` (centres undefined), under “run 1, at 31.32 µM”, the inhibition is 33.7%.
Take `O=C(NC1=CC(=O)c2ccccc2C1=O)c1ccccc1`: for the setting “run 1, at 12.37 µM”, the inhibition was 46.4%.
Regarding `CCc1cc[n+](C2=C(NS(=O)(=O)c3cccs3)C(=O)c3ccccc3C2=O)cc1`, for the setting “run 1, at 14.16 µM”, the inhibition is 54%.
In the case of `O=C(COC(=O)c1ccc([N+](=O)[O-])s1)Nc1ncc(C(F)(F)F)cc1Cl`, the inhibition (run 1, at 27.79 µM) was 42.3%.
On to `Cc1ccc(NC2=CC(=O)C(=O)c3ccccc32)cc1`, for which the inhibition (run 1, at 12.24 µM) is 78.7%.
As to `CN(C1=C(NC(=O)c2ccccc2)C(=O)c2ccccc2C1=O)C1CCS(=O)(=O)C1` (centres undefined), the inhibition (run 2, at 19.2 µM) was 57.8%.
Consider `NS(=O)(=O)c1ccc(NC2=CC(=O)C(=O)c3ccccc32)cc1`, for which, for the setting “run 1, at 11.51 µM”, the inhibition was 78.7%.
As to `Cc1c(Cl)cnc(NC(=O)COC(=O)c2ccc([N+](=O)[O-])s2)c1Cl`, where the note is “run 1, at 20.44 µM”, the inhibition was 49.9%.
In the case of `O=C(COC(=O)c1ccc([N+](=O)[O-])s1)Nc1ccc(F)cc1`, the inhibition (run 1, at 26.34 µM) was 40.3%.
Consider `O=C1Cc2ccccc2C(=O)N1CCc1ccccc1`, for which the inhibition (run 2, at 3.02 µM) was 14.9% (inactive).
In the case of `O=C(NC1=C(NC2CCS(=O)(=O)C2)C(=O)c2ccccc2C1=O)c1ccccc1` (centres undefined), the inhibition (run 1, at 14.2 µM) is 56.9%.
As to `COc1ccc2noc3c2c1C(=O)c1ccccc1-3`, the inhibition (run 1, at 6.28 µM) was 170%.
As to `COC(CNC(=O)c1ccc2c3c(onc13)-c1ccccc1C2=O)OC`, the inhibition (run 1, at 24.19 µM) is 58.5%.
`CCOC(=O)N=Nc1c2ccccc2c2nc3no[nH]c3nc12`: the inhibition (run 1, at 7.75 µM) was 37.8%.
As for `CC1(C)C=C2C(=NN(c3ccccc3)C(N)=C2C#N)CO1`, the inhibition (run 1, at 23.49 µM) is 78.2%.
As for `Cn1nc(-c2ccccn2)nc2c(=O)n(C)c(=O)nc1-2`, the inhibition (run 1, at 1.16 µM) was 98%.
With `O=C1Cc2ccccc2C(=O)N1Cc1ccccc1`, for the setting “run 1, at 1.31 µM”, the inhibition was 68.4%.
For the molecule `O=C(c1ccco1)[C@@H]1[C@@H]2C(=O)N(c3ccc(Br)cc3)C(=O)[C@@H]2C2c3ccccc3C=CN21` (some centres undefined), the inhibition (run 1, at 11.01 µM) was 91.8%.
`O=C1C=C(Nc2ccccc2)c2ccccc2C1=O`: where the note is “run 1, at 15.55 µM”, the inhibition is 75.6%.
For `COc1cc(Br)c(C(=O)c2nccc3cc(OC)c(OC)cc23)cc1OC`, the inhibition (run 1, at 1.13 µM) was 17.2% (inactive).
Take `O=c1[nH]c(Nc2ccccc2)cc2cc(Br)ccc12`: where the note is “run 1, at 1.45 µM”, the inhibition was 57.8%.
In the case of `O=C(/C=C/c1ccc(O)cc1)c1ccc(NC2=C(N3CCCCC3)C(=O)c3ccccc3C2=O)cc1`, the inhibition (run 1, at 10.17 µM) is 30.7%.
As to `O=C(COC(=O)c1ccc([N+](=O)[O-])s1)NCc1ccc(F)cc1`, the inhibition (run 1, at 40.58 µM) was 39.9%.
Turning to `COc1cc(NC(=O)COC(=O)c2ccc([N+](=O)[O-])s2)cc(OC)c1OC`, under “run 1, at 21.72 µM”, the inhibition is 41.2%.
On to `O=C(OCc1nnc(-c2ccccc2)o1)c1ccc([N+](=O)[O-])s1`, for which the inhibition (run 1, at 26.04 µM) is 46.9%.
Regarding `Cc1ccccc1-c1cc2c(nn1)-c1ccccc1C2=O`, for the setting “run 2, at 4.46 µM”, the inhibition was 23.3%.
As for `CCn1nc(/C=C/c2ccccc2)nc2c(=O)n(C)c(=O)nc1-2`, the inhibition (run 1, at 0.49 µM) is 98.8%.
